The target of one assay is JAK2 (Homo sapiens, UniProt O60674). Description: Biochemical potency on JAK2, TR-FRET (LANCE Ultra kinase assay). Particulars: ATP corresponding to Km; cell-free; read-out: JAK2 inhibitory activity (pIC50) (converted). In short, it runs like this: (§1)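 ULight-JAK-1 (Tyr1023) peptide phosphorylation at Km ATP, 1.5 h r.t.; substrate solution held peptide 30/50/20/10 nM and ATP 20/0.7/0.2/12 μM, enzyme solution 0.15/0.083/0.025/0.144 ng/μL (JAK1/JAK2/JAK3/TYK2). EDTA stop, Eu-PT66 antibody TR-FRET read at 665 nm; 11-point 5-fold dilutions from 20 μM; IC50 by variable-slope fit.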

Another assay has as its target TYK2 (Homo sapiens, UniProt P29597). Description: Biochemical potency on Tyk2, TR-FRET (LANCE Ultra kinase assay). Conditions: ATP corresponding to Km; cell-free; read-out: TYK2 inhibitory activity (pIC50) (converted). In short, it runs like this: as §1
For orientation: TR-FRET usually uses a lanthanide donor and a delayed reading to cut background.

Assay [1] concerns pSTAT6 in BEAS-2B human cell line. Description: Inhibition of IL-13 induced pSTAT6 in BEAS. Conditions: for IC50: Homo sapiens, BEAS-2B, 0.5 h, IL-13 trigger, 30 min, parent compound; for Fold difference parent vs predicted acid metabolite: ratio=IC50 predicted acid metabolite/IC50 ester. In kind it is cell-based. In short, it runs like this:
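BEAS-2B cells grown 48 h, pre-treated 30 min with compound, then stimulated 30 min with IL-13. Lysate pSTAT6 (Tyr641) measured by sandwich ELISA. Eleven 5-fold dilutions from 10 μM, in duplicate, fitted to IC50.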

Another assay concerns the target JAK1 (Homo sapiens, UniProt P23458). The assay can be described thus: Biochemical potency on JAK1, TR-FRET (LANCE Ultra kinase assay). Conditions: ATP corresponding to Km; cell-free; read-out: JAK1 inhibitory activity (pIC50) (converted). In short, it runs like this: as §1
The target in a further assay is T1, JAK3 (Homo sapiens, UniProt P52333).
T1 sequence (P52333 1-1124): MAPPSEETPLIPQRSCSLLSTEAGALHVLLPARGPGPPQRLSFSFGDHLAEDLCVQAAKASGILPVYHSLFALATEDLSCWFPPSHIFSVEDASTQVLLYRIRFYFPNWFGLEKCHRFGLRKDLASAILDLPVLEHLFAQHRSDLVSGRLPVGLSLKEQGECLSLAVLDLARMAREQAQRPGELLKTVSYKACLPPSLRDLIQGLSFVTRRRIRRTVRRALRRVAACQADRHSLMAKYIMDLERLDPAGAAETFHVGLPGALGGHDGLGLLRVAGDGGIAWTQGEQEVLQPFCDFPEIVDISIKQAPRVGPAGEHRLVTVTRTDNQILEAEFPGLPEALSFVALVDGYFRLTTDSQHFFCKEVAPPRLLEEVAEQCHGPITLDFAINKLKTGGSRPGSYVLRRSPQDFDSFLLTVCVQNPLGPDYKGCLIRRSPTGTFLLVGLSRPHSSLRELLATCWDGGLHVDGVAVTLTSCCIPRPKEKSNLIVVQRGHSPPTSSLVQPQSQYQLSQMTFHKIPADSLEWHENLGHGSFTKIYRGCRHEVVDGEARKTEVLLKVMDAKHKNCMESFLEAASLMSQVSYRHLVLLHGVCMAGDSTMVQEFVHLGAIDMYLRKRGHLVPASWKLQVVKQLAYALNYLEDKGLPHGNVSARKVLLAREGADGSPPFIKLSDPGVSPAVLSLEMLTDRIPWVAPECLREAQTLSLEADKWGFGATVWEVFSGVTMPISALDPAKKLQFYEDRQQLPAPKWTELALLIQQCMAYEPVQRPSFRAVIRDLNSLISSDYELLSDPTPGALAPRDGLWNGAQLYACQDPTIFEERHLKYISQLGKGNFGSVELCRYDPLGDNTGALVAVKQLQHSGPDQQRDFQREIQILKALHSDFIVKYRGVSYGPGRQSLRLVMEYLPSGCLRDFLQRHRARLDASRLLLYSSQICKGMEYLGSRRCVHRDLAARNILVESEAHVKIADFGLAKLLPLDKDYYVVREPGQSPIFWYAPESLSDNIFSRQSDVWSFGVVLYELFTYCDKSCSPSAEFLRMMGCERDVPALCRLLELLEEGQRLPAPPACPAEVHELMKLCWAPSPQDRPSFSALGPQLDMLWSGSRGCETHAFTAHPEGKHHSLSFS
The assay can be described thus: Biochemical potency on JAK3, TR-FRET (LANCE Ultra kinase assay). Particulars: ATP corresponding to Km; cell-free; read-out: JAK3 inhibitory activity (pIC50) (converted). In short, it runs like this:
as §1

Molecules are shown by their SMILES. A value given as a limit tells only on which side of the number the result lay.

The text below walks through data of patent publication US20260337208A1, “HETEROCYCLIC DERIVATIVES AS JANUS KINASE INHIBITORS” (CHIESI FARMACEUTICI S.P.A., priority 2022, published 2026).

Chain of JAK2 (O60674 whole entry): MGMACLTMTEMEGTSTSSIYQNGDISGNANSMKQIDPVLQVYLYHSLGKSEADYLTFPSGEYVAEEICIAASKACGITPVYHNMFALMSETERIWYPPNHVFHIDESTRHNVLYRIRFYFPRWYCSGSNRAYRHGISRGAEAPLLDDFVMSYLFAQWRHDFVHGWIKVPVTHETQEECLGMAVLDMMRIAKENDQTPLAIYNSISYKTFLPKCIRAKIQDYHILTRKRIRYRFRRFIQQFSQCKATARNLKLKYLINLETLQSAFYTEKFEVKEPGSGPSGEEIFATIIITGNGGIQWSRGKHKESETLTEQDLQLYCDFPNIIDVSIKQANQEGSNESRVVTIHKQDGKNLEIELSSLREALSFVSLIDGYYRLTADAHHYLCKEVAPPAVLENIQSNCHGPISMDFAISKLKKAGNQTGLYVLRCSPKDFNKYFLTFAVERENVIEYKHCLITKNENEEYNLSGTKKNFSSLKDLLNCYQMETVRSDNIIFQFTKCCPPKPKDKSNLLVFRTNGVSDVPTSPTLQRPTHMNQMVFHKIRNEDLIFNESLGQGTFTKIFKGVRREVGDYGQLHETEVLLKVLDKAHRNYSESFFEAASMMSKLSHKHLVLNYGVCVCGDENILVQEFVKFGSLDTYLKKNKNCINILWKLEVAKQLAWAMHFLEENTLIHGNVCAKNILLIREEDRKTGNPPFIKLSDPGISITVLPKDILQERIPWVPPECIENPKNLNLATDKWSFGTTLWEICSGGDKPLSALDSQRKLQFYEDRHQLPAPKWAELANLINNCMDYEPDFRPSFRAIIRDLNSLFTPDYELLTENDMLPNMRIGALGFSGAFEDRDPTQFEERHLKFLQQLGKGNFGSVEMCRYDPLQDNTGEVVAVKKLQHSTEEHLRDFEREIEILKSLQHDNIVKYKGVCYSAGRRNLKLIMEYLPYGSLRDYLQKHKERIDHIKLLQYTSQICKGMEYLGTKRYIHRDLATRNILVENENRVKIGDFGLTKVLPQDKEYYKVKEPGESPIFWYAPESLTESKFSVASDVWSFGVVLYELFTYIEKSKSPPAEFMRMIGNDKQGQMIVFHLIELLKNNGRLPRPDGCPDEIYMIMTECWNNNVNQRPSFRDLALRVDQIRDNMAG
Chain of TYK2 (P29597 whole entry): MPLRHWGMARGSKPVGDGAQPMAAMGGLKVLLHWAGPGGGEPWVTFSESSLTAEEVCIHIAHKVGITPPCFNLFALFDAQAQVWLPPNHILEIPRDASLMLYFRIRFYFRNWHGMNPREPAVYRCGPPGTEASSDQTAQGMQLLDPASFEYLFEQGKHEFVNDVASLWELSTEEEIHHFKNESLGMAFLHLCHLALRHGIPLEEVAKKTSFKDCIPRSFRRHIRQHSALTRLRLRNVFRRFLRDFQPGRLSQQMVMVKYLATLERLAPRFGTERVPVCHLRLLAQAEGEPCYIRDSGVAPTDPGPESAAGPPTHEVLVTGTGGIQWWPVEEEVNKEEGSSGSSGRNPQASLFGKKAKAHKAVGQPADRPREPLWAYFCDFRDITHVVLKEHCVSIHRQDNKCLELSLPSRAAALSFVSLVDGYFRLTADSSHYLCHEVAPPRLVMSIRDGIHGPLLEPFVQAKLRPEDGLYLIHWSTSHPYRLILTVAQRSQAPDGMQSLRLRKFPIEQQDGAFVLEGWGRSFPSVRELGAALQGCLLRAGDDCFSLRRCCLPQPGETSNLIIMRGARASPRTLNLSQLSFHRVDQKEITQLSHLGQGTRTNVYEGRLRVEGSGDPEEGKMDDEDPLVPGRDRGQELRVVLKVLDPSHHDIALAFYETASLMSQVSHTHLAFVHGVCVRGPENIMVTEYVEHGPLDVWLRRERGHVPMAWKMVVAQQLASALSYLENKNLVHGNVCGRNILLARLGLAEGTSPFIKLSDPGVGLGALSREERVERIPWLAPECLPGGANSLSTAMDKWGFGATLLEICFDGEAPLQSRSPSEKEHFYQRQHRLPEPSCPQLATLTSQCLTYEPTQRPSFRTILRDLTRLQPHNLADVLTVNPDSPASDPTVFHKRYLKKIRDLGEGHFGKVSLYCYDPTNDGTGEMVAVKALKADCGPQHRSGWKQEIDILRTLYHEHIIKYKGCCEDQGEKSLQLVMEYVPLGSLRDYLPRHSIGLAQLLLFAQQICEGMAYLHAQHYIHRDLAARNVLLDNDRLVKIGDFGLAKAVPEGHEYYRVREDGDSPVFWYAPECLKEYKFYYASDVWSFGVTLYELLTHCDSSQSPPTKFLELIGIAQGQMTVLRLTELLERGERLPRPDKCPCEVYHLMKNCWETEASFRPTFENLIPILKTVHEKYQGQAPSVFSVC
Chain of JAK1 (P23458 whole entry): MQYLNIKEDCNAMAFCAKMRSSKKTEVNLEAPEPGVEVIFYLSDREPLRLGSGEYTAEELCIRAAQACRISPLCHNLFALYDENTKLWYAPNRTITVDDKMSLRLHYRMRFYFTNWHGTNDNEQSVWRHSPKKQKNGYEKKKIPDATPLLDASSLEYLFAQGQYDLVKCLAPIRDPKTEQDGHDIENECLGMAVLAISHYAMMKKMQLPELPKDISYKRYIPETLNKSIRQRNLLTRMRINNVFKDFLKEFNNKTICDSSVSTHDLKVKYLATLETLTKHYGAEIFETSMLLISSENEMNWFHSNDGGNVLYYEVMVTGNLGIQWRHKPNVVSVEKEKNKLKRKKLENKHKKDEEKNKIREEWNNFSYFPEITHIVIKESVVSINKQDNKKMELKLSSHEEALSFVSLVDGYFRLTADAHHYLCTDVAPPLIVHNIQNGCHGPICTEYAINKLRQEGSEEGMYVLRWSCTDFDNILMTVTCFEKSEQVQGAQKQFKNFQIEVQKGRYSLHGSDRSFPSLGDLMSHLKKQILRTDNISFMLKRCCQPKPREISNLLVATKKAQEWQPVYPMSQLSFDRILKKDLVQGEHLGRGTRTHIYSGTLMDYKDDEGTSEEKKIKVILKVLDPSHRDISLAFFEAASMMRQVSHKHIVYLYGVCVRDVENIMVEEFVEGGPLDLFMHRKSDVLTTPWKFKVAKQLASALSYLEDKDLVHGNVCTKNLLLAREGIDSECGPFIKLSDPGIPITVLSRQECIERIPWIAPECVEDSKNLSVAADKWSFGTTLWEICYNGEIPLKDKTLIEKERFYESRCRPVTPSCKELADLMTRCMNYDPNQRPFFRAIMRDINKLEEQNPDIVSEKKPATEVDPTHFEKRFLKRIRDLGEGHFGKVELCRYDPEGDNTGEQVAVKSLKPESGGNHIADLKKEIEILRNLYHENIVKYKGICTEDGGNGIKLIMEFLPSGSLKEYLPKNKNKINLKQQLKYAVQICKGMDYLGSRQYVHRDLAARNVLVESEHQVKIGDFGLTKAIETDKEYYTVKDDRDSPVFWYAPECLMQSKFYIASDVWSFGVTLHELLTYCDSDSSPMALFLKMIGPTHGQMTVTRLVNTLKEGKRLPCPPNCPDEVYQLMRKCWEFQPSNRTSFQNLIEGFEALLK

For the compound `CCOC(=O)C1CCN(CCNC(=O)c2nn(-c3cc4c(cc3OC)NCCC4)c3cc(-c4cnn5cccnc45)ncc23)CC1` [Example 38, ethyl 1-(2-(1-(7-methoxy-1,2,3,4-tetrahydroquinolin-6-yl)-6-(pyrazolo[1,5-a]pyrimidin-3-yl)-1H-pyrazolo[4,3-c]pyridine-3-carboxamido)ethyl)piperidine-4-carboxylate], the IC50 on JAK2 is 5.01 to 50.1 nM; on TYK2 it was 5.01 to 50.1 nM; in assay [1] it was not above 5.01 nM; at JAK1 it was 5.01 to 50.1 nM; on JAK3, not above 5.01 nM.

Take `CCOC(=O)COC(=O)Nc1nn(-c2cc3c(cc2OC)NCCO3)c2cc(-c3cnn4cccnc34)ncc12` [Example 39, ethyl 2-(((1-(6-methoxy-3,4-dihydro-2H-benzo[b][1,4]oxazin-7-yl)-6-(pyrazolo[1,5-a]pyrimidin-3-yl)-1H-pyrazolo[4,3-c]pyridin-3-yl)carbamoyl)oxy)acetate]: the IC50 is not above 5.01 nM at JAK2; 5.01 to 50.1 nM on TYK2; 5.01 to 50.1 nM in assay [1]; not above 5.01 nM on JAK1; not above 5.01 nM at JAK3. Moreover, the “Fold difference parent vs predicted acid metabolite” value in assay [1] is reported as “kkkk (ratio≥200)”.

Turning to `CCOC(=O)[C@H]1C[C@@H](OC(=O)Nc2nn(-c3cc4c(cc3OC)NCCO4)c3cc(-c4cnn5cccnc45)ncc23)C1` [Example 40, ethyl (1s,3s)-3-(((1-(6-methoxy-3,4-dihydro-2H-benzo[b][1,4]oxazin-7-yl)-6-(pyrazolo[1,5-a]pyrimidin-3-yl)-1H-pyrazolo[4,3-c]pyridin-3-yl)carbamoyl)oxy)cyclobutane-1-carboxylate], the IC50 is not above 5.01 nM on JAK2; 5.01 to 50.1 nM at TYK2; 5.01 to 50.1 nM in assay [1]; not above 5.01 nM at JAK1; not above 5.01 nM at JAK3. Besides, in assay [1], the “Fold difference parent vs predicted acid metabolite” value is recorded as “kk (100>ratio≥10)”.

Regarding `CCOC(=O)C1CCN(CCOC(=O)Nc2nn(-c3cc4c(cc3OC)NCCO4)c3cc(-c4cnn5cccnc45)ncc23)CC1` [Example 41, ethyl 1-(2-(((1-(6-methoxy-3,4-dihydro-2H-benzo[b][1,4]oxazin-7-yl)-6-(pyrazolo[1,5-a]pyrimidin-3-yl)-1H-pyrazolo[4,3-c]pyridin-3-yl)carbamoyl)oxy)ethyl)piperidine-4-carboxylate], the IC50 on JAK2 was not above 5.01 nM; on TYK2, 5.01 to 50.1 nM; in assay [1] it was not above 5.01 nM; at JAK1, not above 5.01 nM; on JAK3, not above 5.01 nM. The “Fold difference parent vs predicted acid metabolite” value in assay [1] was “kkk (200>ratio≥100)”.

For the compound `COc1cc2c(cc1-n1nc(C(=O)NCCN3CCC(C(=O)OC4CCN(C)CC4)CC3)c3cnc(-c4cnn5cccnc45)cc31)OCCN2` [Example 42, 1-methylpiperidin-4-yl 1-(2-(1-(6-methoxy-3,4-dihydro-2H-benzo[b][1,4]oxazin-7-yl)-6-(pyrazolo[1,5-a]pyrimidin-3-yl)-1H-pyrazolo[4,3-c]pyridine-3-carboxamido)ethyl)piperidine-4-carboxylate], the IC50 on JAK2 was not above 5.01 nM; at TYK2, 5.01 to 50.1 nM; in assay [1], 5.01 to 50.1 nM; at JAK1, not above 5.01 nM; at JAK3, not above 5.01 nM. Moreover, the “Fold difference parent vs predicted acid metabolite” value in assay [1] is given as “kkk (200>ratio≥100)”.

On to `CCOC(=O)[C@@H]1CCN(CCNC(=O)c2nn(-c3cc4c(cc3OC)NCCO4)c3cc(-c4cnn5cccnc45)ncc23)C1` [Example 43, ethyl (R)-1-(2-(1-(6-methoxy-3,4-dihydro-2H-benzo[b][1,4]oxazin-7-yl)-6-(pyrazolo[1,5-a]pyrimidin-3-yl)-1H-pyrazolo[4,3-c]pyridine-3-carboxamido)ethyl)pyrrolidine-3-carboxylate], for which the IC50 was not above 5.01 nM on JAK2; 5.01 to 50.1 nM at TYK2; 5.01 to 50.1 nM in assay [1]; not above 5.01 nM at JAK1; not above 5.01 nM at JAK3. For the same compound, the “Fold difference parent vs predicted acid metabolite” value in assay [1] is reported as “kkk (200>ratio≥100)”.

On to `CCOC(=O)[C@H]1CCN(CCNC(=O)c2nn(-c3cc4c(cc3OC)NCCO4)c3cc(-c4cnn5cccnc45)ncc23)C1` [Example 44, ethyl (S)-1-(2-(1-(6-methoxy-3,4-dihydro-2H-benzo[b][1,4]oxazin-7-yl)-6-(pyrazolo[1,5-a]pyrimidin-3-yl)-1H-pyrazolo[4,3-c]pyridine-3-carboxamido)ethyl)pyrrolidine-3-carboxylate], for which the IC50 was not above 5.01 nM at JAK2; 5.01 to 50.1 nM at TYK2; 5.01 to 50.1 nM in assay [1]; not above 5.01 nM at JAK1; not above 5.01 nM at JAK3. Moreover, in assay [1], the “Fold difference parent vs predicted acid metabolite” value was “kkkk (ratio≥200)”.

Regarding `COc1cc2c(cc1-n1nc(C(=O)NCCN3CCC(C(=O)OC(C)C)CC3)c3cnc(-c4cnn5cccnc45)cc31)OCCN2` [Example 45, isopropyl 1-(2-(1-(6-methoxy-3,4-dihydro-2H-benzo[b][1,4]oxazin-7-yl)-6-(pyrazolo[1,5-a]pyrimidin-3-yl)-1H-pyrazolo[4,3-c]pyridine-3-carboxamido)ethyl)piperidine-4-carboxylate], the IC50 at JAK2 is not above 5.01 nM; at TYK2, 5.01 to 50.1 nM; in assay [1], not above 5.01 nM; on JAK1, not above 5.01 nM; on JAK3, not above 5.01 nM. Moreover, the “Fold difference parent vs predicted acid metabolite” value in assay [1] is listed as “kkkk (ratio≥200)”.

Turning to `COc1cc2c(cc1-n1nc(C(=O)OCC3CN(C)CCO3)c3cnc(-c4cnn5cccnc45)cc31)OCCN2` (centres unmarked) [Example 46, (4-methylmorpholin-2-yl)methyl 1-(6-methoxy-3,4-dihydro-2H-benzo[b][1,4]oxazin-7-yl)-6-(pyrazolo[1,5-a]pyrimidin-3-yl)-1H-pyrazolo[4,3-c]pyridine-3-carboxylate], the IC50 at JAK2 is not above 5.01 nM; at TYK2, 5.01 to 50.1 nM; in assay [1], 5.01 to 50.1 nM; on JAK1, not above 5.01 nM; on JAK3, not above 5.01 nM. The “Fold difference parent vs predicted acid metabolite” value in assay [1] is “kkk (200>ratio≥100)”.

As for `COc1cc2c(cc1-n1nc(C(=O)NCCN3CCC(C(=O)OC4CC(C#N)C4)CC3)c3cnc(-c4cnn5cccnc45)cc31)OCCN2` (centres unmarked) [Example 47, 3-cyanocyclobutyl 1-(2-(1-(6-methoxy-3,4-dihydro-2H-benzo[b][1,4]oxazin-7-yl)-6-(pyrazolo[1,5-a]pyrimidin-3-yl)-1H-pyrazolo[4,3-c]pyridine-3-carboxamido)ethyl)piperidine-4-carboxylate], the IC50 was not above 5.01 nM on JAK2; 5.01 to 50.1 nM on TYK2; not above 5.01 nM in assay [1]; not above 5.01 nM on JAK1; not above 5.01 nM on JAK3. Further, the “Fold difference parent vs predicted acid metabolite” value in assay [1] is “kkkk (ratio≥200)”.

Turning to `COc1cc2c(cc1-n1nc(C(=O)NCCN3CCC(CC(=O)OCC(C)(C)O)CC3)c3cnc(-c4cnn5cccnc45)cc31)OCCN2` [Example 48, 2-hydroxy-2-methylpropyl 2-(1-(2-(1-(6-methoxy-3,4-dihydro-2H-benzo[b][1,4]oxazin-7-yl)-6-(pyrazolo[1,5-a]pyrimidin-3-yl)-1H-pyrazolo[4,3-c]pyridine-3-carboxamido)ethyl)piperidin-4-yl)acetate], the IC50 on JAK2 was not above 5.01 nM; on TYK2, 5.01 to 50.1 nM; in assay [1] it was 5.01 to 50.1 nM; at JAK1, not above 5.01 nM; at JAK3, not above 5.01 nM. In assay [1], the “Fold difference parent vs predicted acid metabolite” value is “kkkk (ratio≥200)”.
